In ChEMBL document CHEMBL5506015, “Discovery of a Meisoindigo-Derived PROTAC as the ATM Degrader: Revolutionizing Colorectal Cancer Therapy via Synthetic Lethality with ATR Inhibitors” (J Med Chem, 2024):
Activity calls are given as the source filed them. The calls are words filed in the database; no cut-off is given here.

Experiments:
K562 [1] = test: Downregulation of ATM level in human K562 cells at 20 uM by immunoblot analysis; type: functional, cell-based; conditions: time <= 24.0 hrs, TDE = time-dependent effect
[2] = Toxicity in Balb/c nude mouse assessed as effect on body weight loss at 15 mg/kg/day administered for 14 days in presence of AZD6738 […]; type: organism-based; conditions: in vivo, 336 h, time 14 day
SW-620 [3] = test: Antitumor activity against human SW620 cells xenografted in Balb/c nude mouse model assessed as increase in gamma-H2AX at 15 mg/kg/day measured after 14 days by Western blot analysis; type: functional, organism-based; conditions: time 14.0 day
[4] = Cytotoxicity against human HIEC-6 cells assessed as reduction in cell viability incubated for 48 hrs by MTT assay; type: toxicity, cell-based
[5] = Downregulation of ATM level in human SW620 cells transfected with ATM shRNA by immunoblot analysis; type: functional, SW-620
SW-620 [6] = test: Antitumor activity against human SW620 cells xenografted in Balb/c nude mouse model assessed as decrease in pro caspase 3 level at 15 mg/kg/day measured after 14 days by Western blot analysis; type: functional, organism-based; conditions: time 14.0 day
SW-620 [7] = test: Cytotoxicity against human SW620 cells assessed as reduction in cell viability incubated for 48 hrs by MTT assay; conditions: SW-620, 48 h
K562 [8] = test: Downregulation of ATM level in human K562 cells measured after 8 hrs by immunoblot analysis; type: functional, cell-based; conditions: dose 5-20 µM
COLO 205 = test: Cytotoxicity against human COLO 205 cells assessed as reduction in cell viability incubated for 48 hrs by MTT assay; conditions: COLO 205, 48 h
SW-620 [9] = test: Antitumor activity against human SW620 cells xenografted in Balb/c nude mouse model assessed as increase in cleaved-caspase 3 level at 15 mg/kg/day measured after 14 days by Western blot analysis; type: functional, organism-based; conditions: time 14.0 day
SW480 [10] = test: Downregulation of ATM level in human SW480 cells measured after 12 hrs by immunoblot analysis; type: functional, cell-based; conditions: dose 1.25-10 µM
[11] = Downregulation of ATM level in human HCT-116 cells transfected with ATM shRNA by immunoblot analysis; type: functional
K562 [12] = test: Cytotoxicity against human K562 cells assessed as reduction in cell viability incubated for 48 hrs by MTT assay; conditions: K562, 48 h
HCT-116 [13] = test: Cytotoxicity against human HCT-116 cells transfected with NC shRNA assessed as reduction in cell viability measured after 48 hrs by MTT assay; conditions: HCT-116, 48 h
K562 [14] = test: Induction of DNA damage in human K562 cells assessed as gamma-H2AX accumulation at 20 uM by immunoblot analysis; type: functional, cell-based; conditions: time <= 12.0 hrs, TDE = time-dependent effect
SW480 [15] = test: Downregulation of ATM level in human SW480 cells at 10 uM by immunoblot analysis; type: functional, cell-based; conditions: time <= 12.0 hrs, TDE = time-dependent effect
SW-620 [16] = test: Potentiation of AZD6738 induced DNA damage in human SW620 cells assessed as gamma-H2AX accumulation in nuclei at 5 uM incubated for 12 hrs by immunohistochemical staining based analysis; type: functional, cell-based
SW-620 [17] = test: Induction of DNA damage in human SW620 cells assessed as accumulation of phosphorylated-chk2 (Thr68) measured after 12 hrs by immunoblot analysis; type: functional, cell-based; conditions: dose 2.5-10 µM
SW-620 [18] = test: Downregulation of BCL2 level in human SW620 cells at 1.25 to 10 uM measured after 12 hrs by immunoblot analysis; type: functional, cell-based; conditions: dose 1.25-10 µM
RKO = test: Cytotoxicity against human RKO cells assessed as reduction in cell viability incubated for 48 hrs by MTT assay
SW480 [19] = test: Induction of apoptosis in human SW480 cells measured after 12 hrs by Annexin V-FITC/propidium iodide staining-based flow cytometric analysis; type: functional, cell-based; conditions: dose 5-10 µM
A2780 = test: Cytotoxicity against human A2780 cells assessed as reduction in cell viability incubated for 48 hrs by MTT assay; conditions: A2780, 48 h
K562 [20] = test: Induction of DNA damage in human K562 cells assessed as accumulation of phosphorylated-chk2 (Thr68) at 20 uM by immunoblot analysis; type: functional, cell-based; conditions: time <= 12.0 hrs, TDE = time-dependent effect
SW-620 [21] = test: Antitumor activity against human SW620 cells xenografted in Balb/c nude mouse model assessed as reduction in tumor load at 15 mg/kg/day administered for 14 days by vernier caliper based analysis; type: functional, organism-based; conditions: time 14.0 day
[22] = Toxicity in Balb/c nude mouse assessed as effect on body weight loss at 15 mg/kg/day administered for 14 days […]; type: organism-based; conditions: in vivo, 336 h, time 14 day
HCT-116 [23] = test: Cytotoxicity against human HCT-116 cells assessed as reduction in cell viability incubated for 48 hrs by MTT assay; conditions: HCT-116, 48 h
K562 [24] = test: Induction of DNA damage in human K562 cells assessed as accumulation of phosphorylated-chk2 (Thr68) measured after 8 hrs by immunoblot analysis; type: functional, cell-based
SW-620 [25] = test: Induction of DNA damage in human SW620 cells assessed as gamma-H2AX accumulation at 10 uM by immunoblot analysis; type: functional, cell-based; conditions: time <= 24.0 hrs, TDE = time-dependent effect
SW480 [26] = test: Downregulation of BCL2 level in human SW480 cells at 5 to 20 uM measured after 8 hrs by immunoblot analysis; type: functional, cell-based; conditions: dose 5-20 µM
SW-620 [27] = test: Induction of DNA damage in human SW620 cells assessed as accumulation of phosphorylated-chk2 (Thr68) at 10 uM by immunoblot analysis; type: functional, cell-based; conditions: time <= 24.0 hrs, TDE = time-dependent effect
K562 [28] = test: Upregulation of cleaved caspase 3 level in human K562 cells at 5 to 20 uM measured after 8 hrs by immunoblot analysis; type: functional, cell-based; conditions: dose 5-20 µM
SW-620 [29] = test: Induction of apoptosis in human SW620 cells measured after 12 hrs by Annexin V-FITC/propidium iodide staining-based flow cytometric analysis; type: functional, cell-based; conditions: dose 5-10 µM
SW-620 [30] = test: Downregulation of ATM level in human SW620 cells measured after 12 hrs by immunoblot analysis; type: functional, cell-based; conditions: dose 2.5-10 µM
SW-620 [31] = test: Antitumor activity against human SW620 cells xenografted in Balb/c nude mouse model assessed as reduction in tumor load at 15 mg/kg/day administered for 14 days in presence of AZD6738 by vernier caliper based analysis; type: functional, organism-based; conditions: time 14.0 day
SW-620 [32] = test: Antitumor activity against human SW620 cells xenografted in Balb/c nude mouse model assessed as decrease in ATM protein level at 15 mg/kg/day measured after 14 days by Western blot analysis; type: functional, organism-based; conditions: time 14.0 day
SW-620 [33] = test: Downregulation of PROX1 level in human SW620 cells measured after 12 hrs by immunoblot analysis; type: functional, cell-based; conditions: dose 1.25-10 µM
[34] = Toxicity in Balb/c nude mouse assessed as drug tolerance at 15 mg/kg/day administered for 14 days; type: organism-based; conditions: in vivo, 336 h, time 14 day
SW480 [35] = test: Cytotoxicity against human SW480 cells assessed as reduction in cell viability incubated for 48 hrs by MTT assay; conditions: SW480, 48 h
SW-620 [36] = test: Cytotoxicity against human SW620 cells transfected with NC shRNA assessed as reduction in cell viability measured after 48 hrs by MTT assay; conditions: SW-620, 48 h
SW-620 [37] = test: Cytotoxicity against human SW620 cells transfected with ATM shRNA assessed as reduction in cell viability measured after 48 hrs by MTT assay; conditions: SW-620, 48 h
NCI-H358 = test: Cytotoxicity against human NCI-H358 cells assessed as reduction in cell viability incubated for 48 hrs by MTT assay; conditions: NCI-H358, 48 h
SW-620 [38] = test: Antitumor activity against human SW620 cells xenografted in Balb/c nude mouse model assessed as increase in gamma-H2AX level at 15 mg/kg/day measured after 14 days by Western blot analysis; type: functional, organism-based; conditions: time 14.0 day

**Q.** What does the source list for `Cc1ncsc1-c1ccc(CNC(=O)[C@@H]2C[C@@H](O)CN2C(=O)[C@@H](NC(=O)CCCCCn2cc(CCCN3C(=O)/C(=C4/C(=O)Nc5ccccc54)c4ccccc43)nn2)C(C)(C)C)cc1`?
**A.** Activity (K562 [1]): Tde; Activity [2]: Non-Toxic; Activity (SW-620 [3]): Active; IC50 at 48 h ([4]; HIEC-6 cells): 23.9 µM; Activity ([4]; hiec-6, 48 h, dose 0.01-50 µM, time 48 hrs): Dose-Dependent Effect; Activity [5]: 25%; Activity (SW-620 [6]): Active; IC50 (SW-620 [7]): 3.7 µM; Activity (K562 [8]): Dose-Dependent Effect; IC50 (COLO 205): 5.11 µM; Activity (SW-620 [9]): Active; Activity (SW480 [10]): Dose-Dependent Effect; Activity [11]: 15%; IC50 (K562 [12]): 4.06 µM; IC50 (HCT-116 [13]): 5.82 µM; Activity (K562 [14]): Tde; Activity (SW480 [15]): Tde; Activity (SW-620 [16]): Active; Activity (SW-620 [17]): Dose-Dependent Effect; Activity (SW-620 [18]): Active; IC50 (RKO): 3.95 µM; Activity (SW480 [19]): Dose-Dependent Effect; IC50 (A2780): 3.96 µM; Activity (K562 [20]): Tde; Activity (SW-620 [21]): Active; Activity [22]: Non-Toxic; IC50 (HCT-116 [23]): 5.82 µM; Activity (K562 [24]): Dose-Dependent Effect; Activity (SW-620 [25]): Tde; Activity (SW480 [26]): Active; Activity (SW-620 [27]): Tde; Activity (K562 [28]): Active; Activity (SW-620 [29]): Dose-Dependent Effect; Activity (SW-620 [30]): Dose-Dependent Effect; Activity (SW-620 [31]): Active; Activity (SW-620 [32]): Active; Activity (SW-620 [33]): Dose-Dependent Effect; Activity [34]: Non-Toxic; IC50 (SW480 [35]): 2.59 µM; IC50 (SW-620 [36]): 3.7 µM; IC50 (SW-620 [37]): 9.81 µM; IC50 (NCI-H358): > 20 µM; Activity (SW-620 [38]): Active
